Results reported in patent US9981950B2, “Triazoles as NR2B receptor inhibitors” (Janssen Pharmaceuticals, Inc., priority 2014, dated 2018).

Assays:
hERG-receptor = hERG-receptor (Homo sapiens (Human), UniProt Q12809); assay: HERGBD: inhibition of specific 3H-Dofetilide binding to the hERG-receptor; details: HEK cell membranes with human ERG, Hill-plot 2-parameter-model
Procedure: Inhibition of Specific Binding to the hERG-Receptor (HERGBD)
A HEK cell line with stable transfected human ERG receptor was used for the assay. The cells were grown adherently and maintained in DULBECCOS' MEM medium with 10% FBS, 1% non-essential amino acids, 1% Penicillin/Streptomycin and 400 μg/ml G418 (Calbiochem).
For binding assays and membrane preparations the cell culture medium was removed, cells were washed with PBS. Crude membranes for radioligand binding experiments were prepared by scraping the cells off the dishes in ice cold 20 mM HEPES/0.1 mM KCl/pH 7.2. The cell suspension was homogenized on ice (Ultra turrax, 3×20 sec.) and the homogenate was spun for 10 min (1° C., 1000 g, OPTIMA, SW28, 2800 U/min). The supernatant was than centrifuged for 40 min at 100000 g (1° C., OPTIMA, SW28, 23000 U/min). The membrane pellet was resuspended in 20 mM HEPES/0.1 mM KCl/pH 7.2, frozen and stored at −80° C.
After thawing on the day of the assay, the membrane suspension was diluted further with 20 mM HEPES/0.1 mM KCl/pH 7.2.
The incubation mixture of 200 μl contained 1.5 nmol/l 3H-Dofetilide, optimized amount of membrane preparation, 20 mM HEPES/0.1 mM KCl/(pH 7.2) and inhibitor in 1% DMSO. Nonspecific binding was estimated in the presence of […] Dofetilide. The samples were incubated for 90 min. at RT.
Binding was terminated by filtration of the incubated membrane preparations using Filtermat B (Pharmacia, Uppsala Sweden) and a Micro Cell Harvester (Skatron, Lier, Norway). The Filtermat B had been presoaked with 1% polyethylenimine and carefully washed with 0.05 M Tris/HCl-buffer pH=7.7 after the filtration to separate free and bound radioactivity. The filters were counted in a scintillation counter (Betaplate 1205, Berthold, Wildbad, Germany) in order to determine the specific binding of [^3H]-Dofetilide.
The optimal amount of membrane preparation in the assay was determined and optimized for each membrane preparation separately in front of using the membranes in compound testing.
For pipetting of the incubation mixture we routinely use the robot Biomek2000 (Fa. Beckman).

rat NR1/NR2B receptor = rat NR1/NR2B receptor (Rattus norvegicus (Rat), UniProt P35439+Q00960); assay: RRNR2BB: inhibition of specific binding to the rat NR1/NR2B receptor; details: [3H]-Ifenprodil binding, rat brain membranes, Hill-plot 2-parameter-model
rat NR1/NR2B receptor, sequence (Q00960 27-1482, other chains not shown): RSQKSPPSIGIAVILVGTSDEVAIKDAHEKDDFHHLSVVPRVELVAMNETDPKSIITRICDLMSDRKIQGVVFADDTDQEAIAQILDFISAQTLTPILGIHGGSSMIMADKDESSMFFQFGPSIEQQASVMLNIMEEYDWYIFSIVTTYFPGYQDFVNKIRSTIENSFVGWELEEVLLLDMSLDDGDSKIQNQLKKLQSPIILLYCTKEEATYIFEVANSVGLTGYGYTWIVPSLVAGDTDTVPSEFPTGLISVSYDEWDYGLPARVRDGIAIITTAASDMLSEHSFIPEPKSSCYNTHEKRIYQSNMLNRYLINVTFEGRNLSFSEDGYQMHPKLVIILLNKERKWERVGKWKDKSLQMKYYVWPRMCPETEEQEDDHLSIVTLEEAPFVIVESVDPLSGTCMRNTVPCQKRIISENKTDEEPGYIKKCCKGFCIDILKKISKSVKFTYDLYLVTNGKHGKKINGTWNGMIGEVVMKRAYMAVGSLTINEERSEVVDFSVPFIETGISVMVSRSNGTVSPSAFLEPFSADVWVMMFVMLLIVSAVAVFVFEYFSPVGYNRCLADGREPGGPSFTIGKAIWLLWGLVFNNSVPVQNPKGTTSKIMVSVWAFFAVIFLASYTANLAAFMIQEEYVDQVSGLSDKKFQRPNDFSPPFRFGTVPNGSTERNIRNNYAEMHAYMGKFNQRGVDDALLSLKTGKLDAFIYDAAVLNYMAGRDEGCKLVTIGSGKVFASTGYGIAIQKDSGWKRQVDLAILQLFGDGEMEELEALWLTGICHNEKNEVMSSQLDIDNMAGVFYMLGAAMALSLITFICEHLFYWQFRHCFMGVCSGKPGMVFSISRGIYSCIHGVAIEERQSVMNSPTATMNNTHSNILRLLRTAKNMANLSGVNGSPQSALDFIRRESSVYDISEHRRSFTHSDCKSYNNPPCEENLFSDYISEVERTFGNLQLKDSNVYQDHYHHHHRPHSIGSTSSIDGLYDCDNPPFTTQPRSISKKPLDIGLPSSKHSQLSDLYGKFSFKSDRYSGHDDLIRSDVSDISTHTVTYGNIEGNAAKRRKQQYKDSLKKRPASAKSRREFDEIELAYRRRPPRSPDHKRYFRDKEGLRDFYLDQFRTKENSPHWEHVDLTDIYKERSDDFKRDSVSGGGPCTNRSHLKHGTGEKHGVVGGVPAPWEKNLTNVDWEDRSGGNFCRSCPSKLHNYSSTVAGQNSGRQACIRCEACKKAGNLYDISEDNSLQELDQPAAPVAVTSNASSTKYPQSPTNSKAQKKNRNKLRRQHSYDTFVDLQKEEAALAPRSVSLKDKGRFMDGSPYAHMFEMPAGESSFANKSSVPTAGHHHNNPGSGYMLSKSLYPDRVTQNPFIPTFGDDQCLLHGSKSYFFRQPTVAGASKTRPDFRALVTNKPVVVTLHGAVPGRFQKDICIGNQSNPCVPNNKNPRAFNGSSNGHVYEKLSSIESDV
Procedure: RRNR2BB—Inhibition of Specific Binding to the Rat NR1/NR2B Receptor
Male Wistar rats (180 to 200 g) were killed by suffocation in a CO2 chamber for two minutes. Whole brains without cerebellum were removed and dissected on ice, placed into closed vials and stored at −70° C.
Membrane fractions were prepared and tested using standard techniques. At the time of the assay, 1 g of the brains were placed into 25 ml of 50 mM Tris/10 mM EDTA buffer, pH=7.1, (25 vol. per g of original tissue) and was homogenized for 30 sec at 20000 U/min with an Ultraturrax T25 (Jahnke & Kunkel, IKA-Labortechnik, Staufen, Germany). The homogenate was centrifuged at 4° C. for 10 min at 48000 g (OPTIMA L-70, Beckman, Palo Alto, Calif. 94304, USA). The supernatant was discarded and the pellet was homogenized on ice for 30 sec at 20000 U/min with an Ultraturrax and again centrifuged at 48000 g for 30 minutes at 4° C. The resultant pellet was resuspended in 25 ml of 50 mM Tris/10 mM EDTA buffer, homogenized for 30 sec with an Ultraturrax, aliquoted, frozen at −70° C. and stored until use
After thawing on the day of the assay, a 5 ml membrane aliquote was centrifuged at 48000 g for 30 min at 4° C. The pellet was resuspended in 5 ml of 5 mM Tris/1 mM EDTA buffer, pH=7.4, homogenized for 30 sec at 20000 U/min with an Ultraturrax and centrifuged at 48000 g for 30 min at 4° C. This step was repeated twice. The final pellet was homogenized in 5 ml of 5 mM Tris/mM EDTA buffer at 4° C. with an Ultraturrax and used for the Ifenprodil-binding assay.
Nonspecific binding was estimated in the presence of 10 M CP101.606. The samples were incubated for 60 min. at 4° C.
Binding was terminated by filtration of the incubated membrane preparations using Filtermat B (Pharmacia, Uppsala Sweden) and a Micro Cell Harvester (Skatron, Lier, Norway). The Filtermat B had been presoaked with 1% polyethylenimine and carefully washed with […] Tris/HCl-buffer pH=7.7 after the filtration to separate free and bound radioactivity.
For pipetting of the incubation mixture the robot Biomek2000 (Fa. Beckman) was used.
The IC50 values in the tables below were determined using the Hill-plot, 2-parameter-model.

hERG-receptor, sequence (Q12809 whole entry): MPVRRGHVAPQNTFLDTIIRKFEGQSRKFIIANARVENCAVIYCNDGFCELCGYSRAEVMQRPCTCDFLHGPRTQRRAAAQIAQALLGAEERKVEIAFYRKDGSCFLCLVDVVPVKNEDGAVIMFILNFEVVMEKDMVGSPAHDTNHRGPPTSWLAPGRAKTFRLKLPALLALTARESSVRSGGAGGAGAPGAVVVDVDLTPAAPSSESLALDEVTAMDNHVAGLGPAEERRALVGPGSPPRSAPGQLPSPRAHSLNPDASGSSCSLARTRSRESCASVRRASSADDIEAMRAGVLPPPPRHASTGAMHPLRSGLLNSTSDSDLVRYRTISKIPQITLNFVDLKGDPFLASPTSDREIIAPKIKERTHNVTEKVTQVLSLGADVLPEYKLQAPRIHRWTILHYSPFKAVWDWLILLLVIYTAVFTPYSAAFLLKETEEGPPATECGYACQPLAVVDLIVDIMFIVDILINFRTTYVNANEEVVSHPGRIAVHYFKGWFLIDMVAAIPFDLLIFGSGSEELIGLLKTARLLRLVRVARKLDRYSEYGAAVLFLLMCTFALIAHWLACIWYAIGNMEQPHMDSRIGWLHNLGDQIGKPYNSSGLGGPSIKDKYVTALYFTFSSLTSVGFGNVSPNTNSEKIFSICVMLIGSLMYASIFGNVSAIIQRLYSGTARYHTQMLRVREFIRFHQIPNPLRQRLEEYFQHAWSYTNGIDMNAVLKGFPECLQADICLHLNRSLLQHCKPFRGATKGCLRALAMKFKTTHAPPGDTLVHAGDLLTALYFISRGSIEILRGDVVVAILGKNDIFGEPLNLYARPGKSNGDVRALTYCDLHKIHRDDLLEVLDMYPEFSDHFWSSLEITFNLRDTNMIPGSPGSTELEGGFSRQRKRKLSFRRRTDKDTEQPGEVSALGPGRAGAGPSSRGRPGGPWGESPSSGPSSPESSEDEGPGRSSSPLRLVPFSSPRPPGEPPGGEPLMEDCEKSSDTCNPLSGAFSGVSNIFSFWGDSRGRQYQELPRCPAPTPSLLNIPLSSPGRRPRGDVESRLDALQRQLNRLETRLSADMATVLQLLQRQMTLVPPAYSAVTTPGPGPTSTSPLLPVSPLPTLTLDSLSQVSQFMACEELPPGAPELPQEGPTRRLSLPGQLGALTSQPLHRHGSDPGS

Compound | IC50 (hERG-receptor) [µM] | IC50 (rat NR1/NR2B receptor) [µM]
Cc1cc(-n2cc(Cn3ccnc3C3CC3)nn2)ccc1Cl [Example 65, 1-(4-Chloro-3-methyl-phenyl)-4-(2-cyclopropyl-imidazol-1-ylmethyl)-1H-[1,2,3]triazole] | 3.87 | 
Cc1nc(C2CCC2)nn1Cc1cn(-c2ccc(Cl)cc2)nn1 [Example 22, 1-(4-Chloro-phenyl)-4-(3-cyclobutyl-5-methyl-[1,2,4]triazol-1-ylmethyl)-1H-[1,2,3]triazole] |  | > 10
CC(C)(C)c1ncn(Cc2cn(-c3ccc(Cl)cc3)nn2)n1 [Example 20, 4-(3-tert-Butyl-[1,2,4]triazol-1-ylmethyl)-1-(4-chloro-phenyl)-1H-[1,2,3]triazole] | 35.6 | > 10
Cc1nc(C)n(Cc2cn(-c3ccccc3)nn2)n1 [Example 46, 4-(3,5-Dimethyl-[1,2,4]triazol-1-ylmethyl)-1-phenyl-1H-[1,2,3]triazole] | 7.58 | > 10
CC(C)(C)c1nccn1Cc1cn(-c2ccc(Cl)cc2)nn1 [Example 30, 4-(2-tert-Butyl-imidazol-1-ylmethyl)-1-(4-chloro-phenyl)-1H-[1,2,3]triazole] | 3.58 | 
Clc1ccc(-n2cc(Cn3ccnc3Cl)nn2)cc1 [Example 26, 4-(2-Chloro-imidazol-1-ylmethyl)-1-(4-chloro-phenyl)-1H-[1,2,3]triazole] | 12.1 | 
Cc1ncn(Cc2cn(-c3ccc(Cl)cc3)nn2)n1 [Example 9, 1-(4-Chloro-phenyl)-4-(3-methyl-[1,2,4]triazol-1-ylmethyl)-1H-[1,2,3]triazole] | 46.9 | > 10
Clc1ccc(-n2cc(Cn3ncnc3C3CC3)nn2)cc1 [Example 16, 1-(4-Chloro-phenyl)-4-(5-cyclopropyl-[1,2,4]triazol-1-ylmethyl)-1H-[1,2,3]triazole] | > 100 | > 10
CC(C)(C)c1ncnn1Cc1cn(-c2ccc(Cl)cc2)nn1 [Example 19, 4-(5-tert-Butyl-[1,2,4]triazol-1-ylmethyl)-1-(4-chloro-phenyl)-1H-[1,2,3]triazole] | 33.8 | > 10
Clc1ccc(-n2cc(Cn3cnc(C4CCC4)n3)nn2)cc1 [Example 12, 1-(4-Chloro-phenyl)-4-(3-cyclobutyl-[1,2,4]triazol-1-ylmethyl)-1H-[1,2,3]triazole] | 11.8 | > 10
FC(F)(F)c1ncn(Cc2cn(-c3ccc(Cl)cc3)nn2)n1 [Example 17, 1-(4-Chloro-phenyl)-4-(3-trifluoromethyl-[1,2,4]triazol-1-ylmethyl)-1H-[1,2,3]triazole] | 25.6 | > 10
CC(C)c1ncnn1Cc1cn(-c2ccc(Cl)cc2)nn1 [Example 7, 1-(4-Chloro-phenyl)-4-(5-isopropyl-[1,2,4]triazol-1-ylmethyl)-1H-[1,2,3]triazole] | > 100 | > 10
CC(C)c1nccn1Cc1cn(-c2cccc(OC(F)(F)F)c2)nn1 [Example 73, 4-(2-Isopropyl-imidazol-1-ylmethyl)-1-(3-trifluoromethoxy-phenyl)-1H-[1,2,3]triazole] | 13 | 
Clc1ccc(-n2cc(Cn3ncnc3C3CCC3)nn2)cc1 [Example 11, 1-(4-Chloro-phenyl)-4-(5-cyclobutyl-[1,2,4]triazol-1-ylmethyl)-1H-[1,2,3]triazole] | > 100 | > 1
Clc1ccc(-n2cc(Cn3cnc(C4CC4)n3)nn2)cc1 [Example 13, 1-(4-Chloro-phenyl)-4-(3-cyclopropyl-[1,2,4]triazol-1-ylmethyl)-1H-[1,2,3]triazole] | 45.1 | > 10
Cc1nc(CO)nn1Cc1cn(-c2ccccc2)nn1 [Example 48, 4-(3-Hydroxymethyl-5-methyl-[1,2,4]triazol-1-ylmethyl)-1-phenyl-1H-[1,2,3]triazole] |  | > 10
CCCCc1nccn1Cc1cn(-c2ccc(F)c(C(F)F)c2)nn1 [Example 86, 1-(3-Difluoromethyl-4-fluoro-phenyl)-4-(2-butyl-imidazol-1-ylmethyl)-1H-[1,2,3]triazole] | 3.24 | 
CC(C)c1ncn(Cc2cn(-c3ccc(Cl)cc3)nn2)n1 [Example 4, 1-(4-Chloro-phenyl)-4-(3-isopropyl-[1,2,4]triazol-1-ylmethyl)-1H-[1,2,3]triazole] |  | > 10
Cc1nc(CO)n(Cc2cn(-c3ccccc3)nn2)n1 [Example 47, 4-(5-Hydroxymethyl-3-methyl-[1,2,4]triazol-1-ylmethyl)-1-phenyl-1H-[1,2,3]triazole] |  | > 10
CCCc1ncn(Cc2cn(-c3ccc(Cl)cc3)nn2)n1 [Example 3, 1-(4-Chloro-phenyl)-4-(3-propyl-[1,2,4]triazol-1-ylmethyl)-1H-[1,2,3]triazole] | 0.305 | > 10
CCCc1nccn1Cc1cn(-c2ccc(F)c(Cl)c2)nn1 [Example 43, 1-(3-Chloro-4-fluoro-phenyl)-4-(2-propyl-imidazol-1-ylmethyl)-1H-[1,2,3]triazole] | 2.72 | 
Cc1nncn1Cc1cn(-c2ccc(Cl)cc2)nn1 [Example 31, 1-(4-Chloro-phenyl)-4-(3-methyl-[1,2,4]triazol-4-ylmethyl)-1H-[1,2,3]triazole] | 22.4 | > 10
Clc1ccc(-n2cc(Cn3nc(C4CC4)nc3C3CC3)nn2)cc1 [Example 10, 1-(4-Chloro-phenyl)-4-(3,5-dicyclopropyl-[1,2,4]triazol-1-ylmethyl)-1-[1,2,3]triazole] | 0.0039 | > 10
Cc1nc(C2CCC2)n(Cc2cn(-c3ccc(Cl)cc3)nn2)n1 [Example 21, 1-(4-Chloro-phenyl)-4-(5-cyclobutyl-3-methyl-[1,2,4]triazol-1-ylmethyl)-1H-[1,2,3]triazole] | 3.52 | > 10
Fc1cc(-n2cc(Cn3ccnc3C3CC3)nn2)ccc1Cl [Example 61, 1-(4-Chloro-3-fluoro-phenyl)-4-(2-cyclopropyl-imidazol-1-ylmethyl)-1H-[1,2,3]triazole] | 3.62 | 
CS(=O)(=O)c1cccc(-n2cc(Cn3ccnc3CCO)nn2)c1 [Example 79, 4-[2-(2-Hydroxy-ethyl)-imidazol-1-ylmethyl]-1-(3-methanesulfonyl-phenyl)-1H-[1,2,3]triazole] | > 100 | 
Cc1nc(C)n(Cc2cn(-c3ccc(Cl)cc3)nn2)n1 [Example 1, 1-(4-Chloro-phenyl)-4-(3,5-dimethyl-[1,2,4]triazol-1-ylmethyl)-1H-[1,2,3]triazole] | 419 | > 10
Clc1ccc(-n2cc(Cn3cnc(C4CCCC4)n3)nn2)cc1 [Example 15, 1-(4-Chloro-phenyl)-4-(3-cyclopentyl-[1,2,4]triazol-1-ylmethyl)-1H-[1,2,3]triazole] | 87.9 | > 10
OCCc1nccn1Cc1cn(-c2ccc(Cl)c(OC(F)F)c2)nn1 [Example 98, 1-(4-Chloro-3-difluoromethoxy-phenyl)-4-[2-(2-hydroxy-ethyl)-imidazol-1-ylmethyl]-1H-[1,2,3]triazole] | 17.1 | 
